# Test results reported in paper PMC8148468, “Shikimic acid protects skin cells from UV-induced senescence through activation of the NAD+-dependent deacetylase SIRT1” (Aging (Albany NY), 2021).
# Tests used:
# chaperone BiP = experiment: BiP protein levels (Western blot); type: cell-based, human; details: UVB-irradiated cells, SA -/+ EX-527 1 μM
# Method: Figure 5 (A) Western-blot of BiP proteins levels in UVB or non UVB irradiated cells treated with SA at the indicated concentrations in presence or absence of EX-527 1 μM. (B) Quantification of n=3 experiments as (A). The levels of BiP are normalized by the loading control (histone H3) and represented related to the conditions in UVB irradiated cells in absence of SA and EX-527. Student T-test, *p<0.05. (C) Percentage of SA-β-Gal in assays performed as in Figure 3C. (D) Levels of spliced and unspliced XBP1 mRNA monitored by qPCR analysis in cells treated in the indicated conditions in presence or absence of SA and/or EX-527. The levels were normalized by internal controls and represented in each case related to the conditions in UVB irradiated cells in absence of SA and EX-527. Student T-test, *p<0.05, **p<0.01, ***p<0.001. (E) LC3-II protein levels in experiments like in (A). The levels of LC3-II are normalized by the loading control (tubulin) and represented related to the conditions in UVB irradiated cells in absence of SA and EX-527. Student T-test, *p<0.05. (F) Proposed Model for the effect of SA on senescence through SIRT1. Other possible unexplored connections between SA and senescence are indicated by blue broken lines.
# Protein levels were analyzed as previously described. Cells were directly lysed in 1x Laemmli Buffer (Bio-Rad, USA), incubated at 95° C and centrifuged. […]
# [1] = molecular target: T1, FLAG-SIRT1 purified from HEK293 cells (Homo sapiens, UniProt Q96EB6); experiment: In vitro SIRT1 deacetylation assay; type: biochemical; details: -/+ NAD+, Shikimic acid 1 μM-10mM
# T1 construct: FLAG; made in house; host or cells: HEK293 (HEK293F)
# T1 sequence (Q96EB6 1-747): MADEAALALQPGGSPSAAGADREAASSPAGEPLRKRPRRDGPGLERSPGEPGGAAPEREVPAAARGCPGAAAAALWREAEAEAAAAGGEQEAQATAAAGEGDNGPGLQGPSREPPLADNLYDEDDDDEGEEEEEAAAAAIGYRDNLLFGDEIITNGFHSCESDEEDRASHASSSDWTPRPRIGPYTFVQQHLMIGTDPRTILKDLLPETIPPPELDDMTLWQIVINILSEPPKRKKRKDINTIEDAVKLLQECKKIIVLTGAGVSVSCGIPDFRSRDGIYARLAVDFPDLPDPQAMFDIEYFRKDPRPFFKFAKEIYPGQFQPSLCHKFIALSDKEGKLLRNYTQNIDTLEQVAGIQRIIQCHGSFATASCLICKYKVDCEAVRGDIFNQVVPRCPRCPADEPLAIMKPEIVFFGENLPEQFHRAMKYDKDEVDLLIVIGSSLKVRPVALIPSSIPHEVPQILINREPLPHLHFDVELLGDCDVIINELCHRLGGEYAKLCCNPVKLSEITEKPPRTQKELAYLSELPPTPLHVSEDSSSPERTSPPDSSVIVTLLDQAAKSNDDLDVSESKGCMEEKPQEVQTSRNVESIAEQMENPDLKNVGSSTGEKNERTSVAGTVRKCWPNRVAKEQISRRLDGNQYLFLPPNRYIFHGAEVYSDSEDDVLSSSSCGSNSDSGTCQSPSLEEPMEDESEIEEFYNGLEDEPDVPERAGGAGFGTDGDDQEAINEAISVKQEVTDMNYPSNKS
# Method: Figure 3 (A) Schematic representation of the protocol for senescence induction using UVB irradiation and study of EX527 involvement in the effect of Shikimic acid. Cells were treated with or without shikimic acid -/+ EX-527 from day 1 until day 7 after seeding, irradiated with UVB on days 2 and 5 and harvested for analysis on day 7. (B) Phase-contrast (left column) and bright field (right column) microscope images of β-Gal staining showing non-irradiated cells non-treated and treated with shikimic acid (10, 25 and 50 mM), UVB-irradiated cells non-treated and treated with shikimic acid (10, 25 and 50 mM), shikimic acid (10, 25 and 50 mM) + EX-527 1 μM and EX-527 1 μM. (C) Percentage of SA-β-Gal positive cells and (D) relative HAS2 mRNA levels in non-irradiated cells non-treated and treated with Shikimic acid (10, 25 and 50 mM), UVB-irradiated cells non-treated and treated with Shikimic acid (10, 25 and 50 mM), Shikimic acid (10, 25 and 50 mM) + EX-527 1 μM and EX-527 1 μM. (E) Percentage of SA-β-Gal as in (C) of SA 25 or 50mM upon siRNA mediated downregulation of SIRT1, SIRT2 or SIRT6. siScr: scramble siRNA. […] SIRT1 activity was then evaluated by analyzing acetylation of H3K9, H4K16 and p53K382 by Western blot. […]
# The in vitro SIRT1 deacetylation assay was performed as previously described. […] Deacetylation was monitored by quantification of H3K9ac/H3, H4K16ac/H4 and p53K382ac/p53 levels.
smiles,measurement,setting,value
O=C(O)C1=C[C@@H](O)[C@@H](O)[C@H](O)C1 [Shikimic acid],BiP protein levels,chaperone BiP,induced upregulation of chaperone BiP
same,"SIRT1 deacetylation activity in vitro (H3K9ac, H4K16ac, p53K382ac)",[1],did not alter SIRT1 deacetylation activity in vitro
